# Molecular target: T1, human OX2 receptor (Homo sapiens, UniProt O43614)
# T1 construct: expressed in transfected cells
# T1 sequence (O43614 1-444): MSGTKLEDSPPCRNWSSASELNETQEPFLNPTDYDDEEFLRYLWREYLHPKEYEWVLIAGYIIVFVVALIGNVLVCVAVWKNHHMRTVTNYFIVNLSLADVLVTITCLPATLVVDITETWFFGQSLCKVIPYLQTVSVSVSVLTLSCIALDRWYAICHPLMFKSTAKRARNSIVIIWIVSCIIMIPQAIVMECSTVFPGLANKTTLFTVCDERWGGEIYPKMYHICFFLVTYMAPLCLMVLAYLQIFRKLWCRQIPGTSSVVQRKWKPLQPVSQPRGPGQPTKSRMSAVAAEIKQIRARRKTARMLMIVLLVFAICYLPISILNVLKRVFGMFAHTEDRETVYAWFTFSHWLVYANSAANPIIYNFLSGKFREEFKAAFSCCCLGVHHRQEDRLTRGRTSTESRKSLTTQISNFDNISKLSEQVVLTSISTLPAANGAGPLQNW
# Experiment: Measurement of orexin type 2 receptor agonist activity (Experimental Example 2; Fluo-4 AM calcium fluorescence, FDSS μCELL)
# Assay type: cell-based
# Conditions: compound at 3 μM; CHO cells expressing human OX2 receptor; DMSO = 0%, 10 nM orexin A (human) = 100%
# Method: In order to obtain cell clones that stably express human orexin type 2 receptor, human orexin type 2 (residues 1-444, NCBI Reference Sequence: AK314279) was constructed in a pcDNA3.1 (+) vector (Invitrogen) to express in mammalian cells. This plasmid DNA was transfected into CHO-K1 cells by electroporation, and stable clones were obtained by limiting dilution using resistance to G418 as a selection marker.
# CHO cells in which human OX2 receptor was forcibly expressed were seeded at 10,000 cells/well into a 384-well black transparent bottom plate (BD falcon), and were incubated at 37° C., 5% CO2 for 1 day after incubation at room temperature for 30 minutes. After removing the cell plate medium, assay buffer containing calcium indicator A (HBSS (Thermo Fisher Scientific), 20 mM HEPES (Thermo Fisher Scientific), 0.1% BSA (Sigma-Aldrich), 2.5 μg/mL Fluo-4 AM (Dojin Kagaku), 0.08% Pluronic F127 (Dojin Kagaku), 1.25 mM probenecid (Dojin Kagaku)) was added at 30 μL/well. After incubation in a 5% CO2 incubator at 37° C. for 30 minutes, it was incubated at room temperature for another 30 minutes. Add 10 μL/well of the test compound diluted with assay buffer B (HBSS, 20 mM HEPES, 0.1% BSA), and use FDSS μCELL (Hamamatsu Photonics) to measure the fluorescence value every 1 second for 1 minute, and then every 2 seconds for 1 minute. It was measured for 1 minute and 40 seconds. The amount of fluorescence value when DMSO is added instead of the test compound is defined as 0%, and the amount of fluorescence value when orexin A (human) (Peptide Institute) with a final concentration of 10 nM is added is defined as 100%. The activity (%) of the test compound was calculated. Table 2-1, 2-2, 2-3, and 2-4 show the activity of each compound at a concentration of 3 μM.
row,Structure (SMILES),"OX2R agonist activity (3 μM, %)"
1,"CCS(=O)(=O)N[C@@H]1[C@@H]2Cc3cccc(c3F)Oc3nc(c(F)cc3F)CNC(=O)N2CC1(F)F [Example 21, N-[(15aS,16R)-5,7,17,17,20-pentafluoro-1-oxo-2,3,15a,16,17,18-hexahydro-1H,15H-4,8-(azeno)-14,10-(metheno)pyrrolo[1,2-j][1,8,10]oxadiazacyclo-heptadecin-16-yl]ethanesulfonamide]",100%
2,"CCS(=O)(=O)N[C@H]1[C@@H](F)CN2C(=O)NCc3ccc(C)c(n3)Oc3cccc(c3)C[C@@H]12 [Example 42, N-[(15aS,16R,17S)-17-fluoro-7-methyl-1-oxo-2,3,15a,16,17,18-hexahydro-1H,15H-4,8-(azeno)-14,10-(metheno)pyrrolo[1,2-j][1,8,10]oxadiazacyclo-heptadecin-16-yl]ethanesulfonamide]",101%
3,"Cc1ccc2nc1Oc1cccc(c1F)C[C@H]1[C@@H](NS(=O)(=O)CF)C(F)(F)CN1C(=O)NC2 [Example 19, 1-fluoro-N-[(15aS,16R)-17,17,20-trifluoro-7-methyl-1-oxo-2,3,15a,16,17,18-hexahydro-1H,15H-4,8-(azeno)-10,14-(metheno)pyrrolo[1,2-j][1,8,10]oxadiazacyclo-heptadecin-16-yl]methanesulfonamide]",109%
4,"CN(C)S(=O)(=O)N[C@@H]1[C@@H]2Cc3cccc(c3F)Oc3nc(ccc3Cl)CNC(=O)N2CC1(F)F [Example 13, N′-[(15aS,16R)-7-chloro-17,17,20-trifluoro-1-oxo-2,3,15a,16,17,18-hexahydro-1H,15H-4,8-(azeno)-14,10-(metheno)pyrrolo[1,2-j][1,8,10]oxadiazacyclo-heptadecin-16-yl]-N,N-dimethylsulfuric diamide]",99%
5,"CNS(=O)(=O)N[C@@H]1[C@@H]2Cc3cccc(c3F)Oc3nc(ccc3Cl)OCC(=O)N2CC1(F)F [Example 63, N-[(15aS,16R)-7-chloro-17,17,20-trifluoro-1-oxo-1,2,15a,16,17,18-hexahydro-15H-4,8-(azeno)-10,14-(metheno)pyrrolo[1,2-d][1,12,4]dioxazacyclo-heptadecin-16-yl]-N′-methylsulfuric diamide]",106%
6,"Cc1cnc2nc1Oc1cccc(c1F)C[C@H]1[C@@H](NS(C)(=O)=O)C(F)(F)CN1C(=O)CN2C [Example 75, N-[(15aS,16R)-17,17,20-trifluoro-3,7-dimethyl-1-oxo-2,3,15a,16,17,18-hexahydro-1H,15H-4,8-(azeno)-10,14-(metheno)pyrrolo[1,2-j][1,5,7,10]oxatriazacyclo-heptadecin-16-yl]methanesulfonamide]",95%
7,"CCS(=O)(=O)N[C@@H]1[C@@H]2Cc3cc(ccc3F)Oc3nc(ccc3C)CNC(=O)N2CC1(F)F (relative stereo) [Example 90, N-[rel-(15aS,16R)-13,17,17-trifluoro-7-methyl-1-oxo-2,3,15a,16,17,18-hexahydro-1H,15H-4,8-(azeno)-14,10-(metheno)pyrrolo[1,2-j][1,8,10]oxadiazacyclohepta-decin-16-yl]ethanesulfonamide (optical isomer)]",108%
8,"CS(=O)(=O)N[C@@H]1[C@@H]2Cc3ccc(F)c(c3)Oc3nc(ccc3Cl)OCC(=O)N2CC1(F)F (relative stereo) [Example 95, N-[rel-(15aS,16R)-7-chloro-11,17,17-trifluoro-1-oxo-1,2,15a,16,17,18-hexahydro-15H-4,8-(azeno)-14,10-(metheno)pyrrolo[1,2-d][1,12,4]dioxazacyclo-heptadecin-16-yl]methanesulfonamide (optical isomer)]",103%
9,"Cc1ccc2nc1Oc1cc(ccc1F)C[C@H]1[C@@H](NS(C)(=O)=O)C(F)(F)CN1C(=O)NC2 (relative stereo) [Example 86, N-[rel-(15aS,16R)-11,17,17-trifluoro-7-methyl-1-oxo-2,3,15a,16,17,18-hexahydro-1H,15H-4,8-(azeno)-14,10-(metheno)pyrrolo[1,2-j][1,8,10]oxadiazacyclo-heptadecin-16-yl]methanesulfonamide (optical isomer)]",102%
10,"CS(=O)(=O)N[C@@H]1[C@@H]2Cc3cccc(c3)Oc3nc(ccc3C(F)F)[C@@H]3C[C@@H]3C(=O)N2CC1(F)F (single isomer, unassigned) [Example 107]",108%
11,"CCS(=O)(=O)N[C@@H]1[C@@H]2Cc3cccc(c3F)Oc3nc(c(F)cc3C)CNC(=O)N2CC1(F)F [Example 32, N-[(15aS,16R)-5,17,17,20-tetrafluoro-7-methyl-1-oxo-2,3,15a,16,17,18-hexahydro-1H,15H-4,8-(azeno)-14,10-(metheno)pyrrolo[1,2-j][1,8,10]oxadiazacyclo-heptadecin-16-yl]ethanesulfonamide]",101%
12,"CCS(=O)(=O)N[C@H]1[C@@H](F)CN2C(=O)NCc3ccc(C)c(n3)Oc3cccc(c3F)C[C@@H]12 [Example 25, N-[(15aS,16R,17S)-17,20-difluoro-7-methyl-1-oxo-2,3,15a,16,17,18-hexahydro-1H,15H-4,8-(azeno)-14,10-(metheno)pyrrolo[1,2-j][1,8,10]oxadiazacyclo-heptadecin-16-yl]ethanesulfonamide]",105%
13,"COCS(=O)(=O)N[C@@H]1[C@@H]2Cc3cccc(c3F)Oc3nc(ccc3C)CNC(=O)N2CC1(F)F [Example 46, 1-methoxy-N-[(15aS,16R)-17,17,20-trifluoro-7-methyl-1-oxo-2,3,15a,16,17,18-hexahydro-1H,15H-4,8-(azeno)-14,10-(metheno)pyrrolo[1,2-j][1,8,10]oxadiazacyclo-heptadecin-16-yl]methanesulfonamide]",99%
14,"CCS(=O)(=O)N[C@H]1[C@@H](F)CN2C(=O)NCc3ccc(F)c(n3)Oc3cccc(c3F)C[C@@H]12 [Example 31, N-[(15aS,16R,17S)-7,17,20-trifluoro-1-oxo-2,3,15a,16,17,18-hexahydro-1H,15H-4,8-(azeno)-14,10-(metheno)pyrrolo[1,2-j][1,8,10]oxadiazacyclo-heptadecin-16-yl]ethanesulfonamide]",102%
15,"CCS(=O)(=O)N[C@@H]1[C@@H]2Cc3cccc(c3)Oc3nc(ccc3Cl)CNC(=O)N2CC1(F)F (relative stereo) [Example 53, N-[rel-(15aR,16S)-7-chloro-17,17-difluoro-1-oxo-2,3,15a,16,17,18-hexahydro-1H,15H-4,8-(azeno)-14,10-(metheno)pyrrolo[1,2-j][1,8,10]oxadiazacyclo-heptadecin-16-yl]ethanesulfonamide (optical isomer)]",100%
16,"Cc1ccc2nc1Oc1cccc(c1F)C[C@H]1[C@@H](NS(=O)(=O)C(C)C)C(F)(F)CN1C(=O)NC2 [Example 97, N-[(15aS,16R)-17,17,20-trifluoro-7-methyl-1-oxo-2,3,15a,16,17,18-hexahydro-1H,15H-4,8-(azeno)-14,10-(metheno)pyrrolo[1,2-j][1,8,10]oxadiazacyclo-heptadecin-16-yl]propane-2-sulfonamide]",108%
17,"CCS(=O)(=O)N[C@H]1[C@@H](F)CN2C(=O)COc3ncc(C)c(n3)Oc3cccc(c3)C[C@@H]12 [Example 71, N-[(15aS,16R,17S)-17-fluoro-7-methyl-1-oxo-1,2,15a,16,17,18-hexahydro-15H-4,8-(azeno)-10,14-(metheno)pyrrolo[2,1-n][1,7,3,15]dioxadiazacyclo-heptadecin-16-yl]ethanesulfonamide]",99%
18,"CS(=O)(=O)N[C@H]1[C@@H](F)CN2C(=O)COc3ccc(Cl)c(n3)Cc3cccc(c3F)C[C@@H]12 [Example 67, N-[(15aS,16R,17S)-7-chloro-17,20-difluoro-1-oxo-1,2,15a,16,17,18-hexahydro-9H,15H-4,8-(azeno)-14,10-(metheno)pyrrolo[1,2-d][1,4]oxazacycloheptadecin-16-yl]methanesulfonamide]",103%

# Reference: US20240309016A1, “MACROCYCLIC HETEROCYCLE COMPOUNDS AND USE THEREOF” (TAKEDA PHARMACEUTICAL COMPANY LIMITED, priority 2023, published 2024)
